According to ChEMBL document CHEMBL1201862, “PubChem BioAssay data set” (2004):
Active and inactive are the calls of the source.

Columns and labels:
[1] = molecular target: T1, Sentrin-specific protease 8 (Homo sapiens, UniProt Q96LD8); assay type: functional;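 note: luminescence read-out of SENP8 inhibition, dose-response confirmation following an ultra-high-throughput screen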
T1 sequence (Q96LD8 whole entry): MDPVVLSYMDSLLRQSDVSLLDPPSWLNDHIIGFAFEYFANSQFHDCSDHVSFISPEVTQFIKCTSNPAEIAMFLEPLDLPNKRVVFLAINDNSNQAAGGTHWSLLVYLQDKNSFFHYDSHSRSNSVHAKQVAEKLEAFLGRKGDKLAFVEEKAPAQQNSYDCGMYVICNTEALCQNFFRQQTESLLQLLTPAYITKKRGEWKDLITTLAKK

[2] = molecular target: Fructose-bisphosphate aldolase (Mycobacterium tuberculosis, UniProt P9WQA3); experiment: Fluorescence-based biochemical high throughput dose response assay for inhibitors of the fructose-bisphosphate aldolase (FBA) of M. tuberculosis.; assay type: functional
Fructose-bisphosphate aldolase, sequence (P9WQA3 whole entry): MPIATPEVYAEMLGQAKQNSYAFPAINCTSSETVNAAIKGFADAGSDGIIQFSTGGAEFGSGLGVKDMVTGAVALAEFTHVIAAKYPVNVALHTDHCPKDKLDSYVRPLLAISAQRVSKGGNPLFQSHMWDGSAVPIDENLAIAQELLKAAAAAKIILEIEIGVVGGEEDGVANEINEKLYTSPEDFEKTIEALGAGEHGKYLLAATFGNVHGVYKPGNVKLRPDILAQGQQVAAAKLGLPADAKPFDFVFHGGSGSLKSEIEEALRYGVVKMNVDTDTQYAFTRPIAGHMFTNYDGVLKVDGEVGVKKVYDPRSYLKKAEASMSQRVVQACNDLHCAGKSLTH

[3] = molecular target: Transitional endoplasmic reticulum ATPase (Homo sapiens, UniProt P55072, C522A); experiment: C522A mutant p97 ATPase inhibitors, dose response, counter-screen for p97 inhibitor project, biochemical, luminescence (AID 1544)
Transitional endoplasmic reticulum ATPase (Homo sapiens, UniProt P55072, C522A), sequence (P55072 2-806 C522A limits assumed): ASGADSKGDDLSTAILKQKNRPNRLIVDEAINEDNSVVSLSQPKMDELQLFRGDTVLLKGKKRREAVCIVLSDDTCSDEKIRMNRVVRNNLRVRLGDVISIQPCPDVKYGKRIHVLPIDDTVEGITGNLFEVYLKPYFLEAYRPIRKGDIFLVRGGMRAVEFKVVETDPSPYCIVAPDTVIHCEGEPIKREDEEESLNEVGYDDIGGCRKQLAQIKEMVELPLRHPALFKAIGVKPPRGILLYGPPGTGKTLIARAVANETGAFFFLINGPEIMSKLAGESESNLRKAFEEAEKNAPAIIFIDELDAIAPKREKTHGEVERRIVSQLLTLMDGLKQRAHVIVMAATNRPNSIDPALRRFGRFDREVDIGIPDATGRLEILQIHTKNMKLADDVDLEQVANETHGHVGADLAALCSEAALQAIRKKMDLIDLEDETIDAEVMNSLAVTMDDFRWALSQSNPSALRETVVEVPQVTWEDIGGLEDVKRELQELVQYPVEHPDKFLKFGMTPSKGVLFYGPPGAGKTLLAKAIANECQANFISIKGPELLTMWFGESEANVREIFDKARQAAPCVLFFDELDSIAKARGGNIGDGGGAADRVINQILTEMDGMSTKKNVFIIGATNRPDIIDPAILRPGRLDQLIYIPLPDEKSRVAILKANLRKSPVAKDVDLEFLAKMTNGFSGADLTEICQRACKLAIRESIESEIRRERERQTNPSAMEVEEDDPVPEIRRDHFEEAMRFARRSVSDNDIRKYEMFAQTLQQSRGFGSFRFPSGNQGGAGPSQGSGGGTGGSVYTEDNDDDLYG

[4] = molecular target: Transitional endoplasmic reticulum ATPase (Homo sapiens, UniProt P55072); experiment: p97 ATPase inhibitors, dose response, biochemical (AID 1534)
Transitional endoplasmic reticulum ATPase (Homo sapiens, UniProt P55072), sequence (P55072 whole entry): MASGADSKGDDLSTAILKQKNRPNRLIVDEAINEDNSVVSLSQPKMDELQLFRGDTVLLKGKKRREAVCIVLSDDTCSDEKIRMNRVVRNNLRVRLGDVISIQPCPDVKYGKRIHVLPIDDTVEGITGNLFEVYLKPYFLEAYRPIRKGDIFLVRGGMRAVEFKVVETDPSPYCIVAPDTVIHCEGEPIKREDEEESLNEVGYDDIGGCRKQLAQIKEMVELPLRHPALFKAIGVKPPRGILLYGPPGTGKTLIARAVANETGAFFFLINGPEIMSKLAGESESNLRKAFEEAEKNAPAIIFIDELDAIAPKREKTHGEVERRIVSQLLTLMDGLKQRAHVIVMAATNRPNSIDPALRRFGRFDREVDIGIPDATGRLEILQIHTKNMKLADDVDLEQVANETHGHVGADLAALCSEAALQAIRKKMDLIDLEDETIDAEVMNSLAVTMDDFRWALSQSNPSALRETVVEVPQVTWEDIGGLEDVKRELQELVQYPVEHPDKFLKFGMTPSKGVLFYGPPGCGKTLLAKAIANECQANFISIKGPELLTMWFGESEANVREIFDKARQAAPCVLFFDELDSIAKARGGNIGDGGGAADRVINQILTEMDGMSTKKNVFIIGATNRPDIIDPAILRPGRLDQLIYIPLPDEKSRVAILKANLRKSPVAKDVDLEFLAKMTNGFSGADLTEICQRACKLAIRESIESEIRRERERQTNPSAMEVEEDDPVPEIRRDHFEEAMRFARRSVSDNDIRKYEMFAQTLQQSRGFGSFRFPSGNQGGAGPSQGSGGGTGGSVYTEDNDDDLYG

[5] = molecular target: T2, Tyrosyl-DNA phosphodiesterase 2 (Homo sapiens, UniProt O95551); experiment: potency against TDP2 phosphodiesterase activity – biochemical, epi absorbance, IC50, dose response (AID 743297)
T2 sequence (O95551 whole entry): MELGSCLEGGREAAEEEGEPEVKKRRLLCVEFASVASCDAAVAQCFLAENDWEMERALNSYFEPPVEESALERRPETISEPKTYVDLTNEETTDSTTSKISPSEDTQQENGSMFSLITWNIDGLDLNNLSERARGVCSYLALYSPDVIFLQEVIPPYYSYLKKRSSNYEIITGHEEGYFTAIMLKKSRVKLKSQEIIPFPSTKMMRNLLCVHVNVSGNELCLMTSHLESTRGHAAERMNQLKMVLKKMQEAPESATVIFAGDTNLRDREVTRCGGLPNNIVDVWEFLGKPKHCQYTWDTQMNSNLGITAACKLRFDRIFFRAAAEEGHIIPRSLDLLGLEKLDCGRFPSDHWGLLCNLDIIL

[6] = molecular target: T3, Zinc finger protein mex-5 (Caenorhabditis elegans, UniProt Q9XUB2); experiment: potency of MEX-5 RNA-binding blockers – biochemical, C. elegans, fluorescence polarization, dose response (AID 1960)
T3 sequence (Q9XUB2 whole entry): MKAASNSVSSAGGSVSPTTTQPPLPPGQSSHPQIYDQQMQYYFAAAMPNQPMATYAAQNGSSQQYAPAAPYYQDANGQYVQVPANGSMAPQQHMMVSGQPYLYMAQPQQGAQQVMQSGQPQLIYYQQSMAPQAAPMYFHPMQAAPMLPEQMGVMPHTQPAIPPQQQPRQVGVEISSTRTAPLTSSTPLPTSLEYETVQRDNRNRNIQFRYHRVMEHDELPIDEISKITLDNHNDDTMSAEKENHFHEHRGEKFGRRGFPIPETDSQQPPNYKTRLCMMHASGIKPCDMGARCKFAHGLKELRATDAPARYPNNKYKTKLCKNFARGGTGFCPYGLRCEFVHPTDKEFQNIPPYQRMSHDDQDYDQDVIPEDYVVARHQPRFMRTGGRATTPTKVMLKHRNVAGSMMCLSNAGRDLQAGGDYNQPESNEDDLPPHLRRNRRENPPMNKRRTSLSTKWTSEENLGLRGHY

[7] = molecular target: T4, RNA-binding protein pos-1 (Caenorhabditis elegans, UniProt G5EF15); experiment: disruptors of C. elegans POS-1 RNA interaction – biochemical, fluorescence polarization, dose response (AID 1964);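 note: purified POS-1 fused to maltose binding protein made in E. coli; potency of compounds blocking POS-1 binding to fluorescent RNA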
T4 sequence (G5EF15 whole entry): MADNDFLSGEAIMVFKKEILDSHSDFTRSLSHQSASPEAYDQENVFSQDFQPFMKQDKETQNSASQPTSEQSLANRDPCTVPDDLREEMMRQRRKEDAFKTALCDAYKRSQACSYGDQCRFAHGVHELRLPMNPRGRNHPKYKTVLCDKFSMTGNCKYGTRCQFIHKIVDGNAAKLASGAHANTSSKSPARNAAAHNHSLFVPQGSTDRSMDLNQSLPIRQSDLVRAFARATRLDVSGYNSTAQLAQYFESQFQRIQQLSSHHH

[8] = molecular target: Beta Lactamase (Pseudomonas aeruginosa, UniProt Q932Y6); experiment: BLA reporter interference, concentration series – BLA reporter cells, FRET fluorescence, artefact control for TLR9-MyD88 binding inhibitor project, dose response (AID 588341); assay type: cell-based;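 note: cell based assay in CHO-K1 cells stably expressing beta-lactamase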
Beta Lactamase, sequence (Q932Y6 whole entry): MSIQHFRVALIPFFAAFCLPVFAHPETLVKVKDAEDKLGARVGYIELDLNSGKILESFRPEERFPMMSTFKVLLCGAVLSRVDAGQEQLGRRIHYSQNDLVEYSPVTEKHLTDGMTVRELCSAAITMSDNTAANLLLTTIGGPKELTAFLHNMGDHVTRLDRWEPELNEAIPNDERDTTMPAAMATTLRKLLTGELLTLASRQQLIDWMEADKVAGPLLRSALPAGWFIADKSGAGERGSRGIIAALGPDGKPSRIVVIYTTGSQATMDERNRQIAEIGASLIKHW

[9] = molecular target: Heat shock protein HSP 90-alpha (Homo sapiens, UniProt P07900); assay type: functional, organism-based
[10] = fluconazole-exposed Candida albicans growth modulators – fluorescence, retest, confirmation (AID 2467); assay type: functional, cell-based
[11] = tested on: Streptococcus sp. 'group A'; experiment: Streptococcus pyogenes SK(-)GAS viability under kanamycin – luminescence, BacTiterGlo, confirmation, counter-screen for streptokinase expression inhibitor project, dose response (AID 1900); assay type: functional, organism-based
[12] = tested on: Streptococcus; experiment: GAS UMAA2166 growth inhibition – luminescence, BacTiterGlo, counter-screen for streptokinase expression inhibitor project, dose response (AID 1915); assay type: functional, organism-based;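 note: potency for reduction of bacterial viability or growth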
[13] = NIH-3T3 fibroblast cytotoxicity, dose response, cytotoxicity control, cell-based, fluorescence, Alamar Blue, secondary assay (AID 2327); assay type: functional;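 note: NIH-3T3 mouse fibroblasts cultured with fluconazole at 8 µg/mL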
[14] = molecular target: Paired box protein Pax-8 (Homo sapiens, UniProt Q06710); experiment: PAX8 transcriptional activity inhibition in RMG-I – RMG-I cells, luciferase, cherry-pick, dose response (AID 687027); assay type: functional, cell-based;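 note: luciferase reporter driven by Pax8 target thyroperoxidase promoter measured by SteadyGlo luminescence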
Paired box protein Pax-8, sequence (Q06710 whole entry): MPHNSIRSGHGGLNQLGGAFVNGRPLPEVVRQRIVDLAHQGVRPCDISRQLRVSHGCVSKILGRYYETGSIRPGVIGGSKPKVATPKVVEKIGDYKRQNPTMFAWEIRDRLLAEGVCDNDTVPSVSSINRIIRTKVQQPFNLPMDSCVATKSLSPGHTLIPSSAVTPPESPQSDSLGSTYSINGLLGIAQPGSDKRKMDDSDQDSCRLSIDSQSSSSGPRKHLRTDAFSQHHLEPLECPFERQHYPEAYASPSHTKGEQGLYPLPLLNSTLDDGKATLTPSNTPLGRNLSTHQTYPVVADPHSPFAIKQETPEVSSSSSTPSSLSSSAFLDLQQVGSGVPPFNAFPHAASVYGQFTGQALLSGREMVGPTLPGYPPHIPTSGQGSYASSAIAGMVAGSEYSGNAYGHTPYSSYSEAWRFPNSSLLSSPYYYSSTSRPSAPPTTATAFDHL

N#Cc1c(N2CCCCC2)nc(N)c2c(N)nc(SCC(=O)O)cc12
IC50 [1]: 10.6 µM (active) | IC50 [2]: 8.03 µM (active) | IC50 [3]: > 50 µM (not active) | IC50 [4]: > 50 µM (not active)

CC1(C)Cc2ccccc2C2=NNC(=O)C2=N1
IC50 [5]: 22.9 µM (inactive)

CCc1ccc(S(=O)(=O)Nc2cc(SCC(=O)O)c(O)c3ccccc23)cc1
IC50 [5]: 85.9 µM (inactive) | EC50 [6]: 11.5 µM (active) | EC50 [7]: 35.5 µM (active)

O=[N+]([O-])c1ccc(Sc2cccc[n+]2[O-])c2nonc12
IC50 [8]: 7.63 µM (active) | AC50 [9]: 3.91 µM (active)

CCCC(=O)NC(c1ccc(C(C)C)cc1)c1ccc2cccnc2c1O (stereo not given)
EC50 [10]: 0.621 µM (active) | EC50 [11]: 2.55 µM (active) | EC50 [12]: 6.95 µM (active) | EC50 [13]: 22.1 µM (inconclusive) | AC50 [14]: 1.21 µM (active)

Oc1c(Cl)cc(Cl)c(Cl)c1Cc1c(O)c(Cl)cc(Cl)c1Cl [HEXACHLOROPHENE]
EC50 [10]: > 38 µM (not active) | EC50 [11]: 0.244 µM (active) | IC50 [3]: > 50 µM (not active) | IC50 [4]: 5.49 µM (active) | EC50 [12]: 0.262 µM (active) | EC50 [6]: 19.1 µM (inconclusive) | EC50 [7]: 45.4 µM (inconclusive) | AC50 [9]: 0.77 µM (active) | EC50 [13]: 16.2 µM (active) | AC50 [14]: 3.3 µM (active)
